Test system: N-linked glycosylation (OST) in CHO-ER-LucT cells
Assay: CHO-ER-LucT luminescence assay for inhibition of N-linked glycosylation
Assay type: cell-based
Details: for Emax: 24 h, [compound's fold change-1.0 (DMSO)]/[NGI-1 fold change-1.0 (DMSO)]*100, read-out: Max activity (% NGI-1); for AC50: CHO-ER-LucT cells, 24 hrs exposure, seven-point dose dilution, luminescence
Experimental: The CHO-ER-LucT cells have been previously described (Contessa et al., 2010, Clinical Cancer Research, 16(12):3205-14) and are used for testing analog IC50 for inhibition of N-linked glycosylation in 96 or 384 well plate format. In these cells induction of luminescence is dependent on inhibition of glycosylation (and OST inhibition), and is determined after 24 hrs of exposure to the analog following the addition of luciferin substrate. The luminescent signal is then quantified using standard plate readers that detect luminescence (e.g., Biotek synergy). Experiments are performed over a seven-point dose dilution to generate dose response data and to identify IC50 values and maximal activity compared to controls. Data is transformed to log 10 values to generate a sigmoidal shaped dose response curve and fitted using nonlinear regression (curve fit) in GraphPad Prism7.
All HL compounds were tested in CHO-ER-LucT cells. IC50 (AC50) was estimated in following method: Concentration X is converted to logarithm (log10) to generate sigmoidal shape curve and dose response curve is generated using Nonlinear regression (curve fit) in Prism. EC50 (AC50) is calculated using log(agonist) vs response-(three parameters)] which uses standard Hill slope (=1).
Max activity: [compound's fold change−1.0 (DMSO)]/[NGI−1 fold change−1.0 (DMSO)]*100(%) (Eq. 1)

Structure (SMILES) | Emax | AC50
Cc1ccc(NC(=O)c2cc(S(=O)(=O)N(C)C)ccc2N2CCC(F)(F)C2)cc1 [Example 33, 2-(3,3-difluoropyrrolidin-1-yl)-5-(N,N-dimethylsulfamoyl)-N-(p-tolyl)benzamide] | 67.5% | 5.84 µM
Cc1nc(NC(=O)c2cc(S(=O)(=O)N3CCOCC3)ccc2N(C)C2CCCC2)sc1C [Example 9, 2-(cyclopentyl(methyl)amino)-N-(4,5-dimethylthiazol-2-yl)-5-(morpholinosulfonyl)benzamide] | 83.5% | 0.165 µM
CCc1cnc(NC(=O)c2cc(S(=O)(=O)N(C)C)ccc2N(C)C2CC2)s1 | 86.8% | 1.19 µM
Cc1nc(NC(=O)c2cc(S(=O)(=O)N(C)C)ccc2N(C)C2CCCC2)sc1C [Example 1, 2-(cyclopentyl(methyl)amino)-5-(N,N-dimethylsulfamoyl)-N-(4,5-dimethylthiazol-2-yl)benzamide] | 81% | 0.376 µM
CCc1cnc(NC(=O)c2cc(S(=O)(=O)N(C)C)ccc2N(C)C2CCCC2)s1 [Example 2, 2-(cyclopentyl(methyl)amino)-5-(N,N-dimethylsulfamoyl)-N-(5-ethylthiazol-2-yl)benzamide] | 129% | 0.12 µM
Cc1nc(NC(=O)c2cc(S(=O)(=O)N3CCOCC3)ccc2N(C)CC2CC2)sc1C [Example 10, 2-((cyclopropylmethyl)(methyl)amino)-N-(4,5-dimethylthiazol-2-yl)-5-(morpholinosulfonyl)benzamide] | 88.7% | 0.128 µM
CCc1cnc(NC(=O)c2cc(S(=O)(=O)N(C)Cc3ccccc3)ccc2N(C)CC2CC2)s1 [Example 18, 5-(N-benzyl-N-methylsulfamoyl)-2-((cyclopropylmethyl)(methyl)amino)-N-(5-ethylthiazol-2-yl)benzamide] | 71.2% | 0.266 µM
Cc1ccc(NC(=O)c2cc(S(=O)(=O)N(C)C)cnc2N2CCCC2)cc1 | 14.9% | 94.5 µM
CCc1cnc(NC(=O)c2cc(S(=O)(=O)N3CCOCC3)ccc2N(C)C(C)C)s1 [Example 5, N-(5-ethylthiazol-2-yl)-2-(isopropyl(methyl)amino)-5-(morpholinosulfonyl)benzamide] | 162% | 0.27 µM
CCc1cnc(NC(=O)c2cc(S(=O)(=O)N(C)C)ccc2N(C)C2CCCCC2)s1 [Example 11, 2-(cyclohexyl(methyl)amino)-5-(N,N-dimethylsulfamoyl)-N-(5-ethylthiazol-2-yl)benzamide] | 52.9% | 0.248 µM
CCc1cnc(NC(=O)c2cc(S(=O)(=O)N3CCOCC3)ccc2N(C)C2CC2)s1 | 129% | 2.5 µM
Cc1nc(NC(=O)c2cc(S(=O)(=O)N(C)C)c(F)cc2N2CCCC2)sc1C [Example 32, 5-(N,N-dimethylsulfamoyl)-N-(4,5-dimethylthiazol-2-yl)-4-fluoro-2-(pyrrolidin-1-yl)benzamide] | 52.6% | 3.84 µM
CN(c1ccc(S(=O)(=O)N(C)C)cc1C(=O)Nc1nc2c(s1)COCC2)C1CCCC1 | 46.2% | 1.02 µM
CCc1cnc(NC(=O)c2cc(S(=O)(=O)N3CCOCC3)nnc2N(C)CC2CC2)s1 [Example 27, 3-((cyclopropylmethyl)(methyl)amino)-N-(5-ethylthiazol-2-yl)-6-(morpholinosulfonyl)pyridazine-4-carboxamide] | 13.3% | 0.115 µM
CN(CC1CC1)c1ncc(S(=O)(=O)N(C)C)cc1C(=O)Nc1nc2c(s1)COCC2 [Example 24, 2-((cyclopropylmethyl)(methyl)amino)-N-(6,7-dihydro-4H-pyrano[4,3-d]thiazol-2-yl)-5-(N,N-dimethylsulfamoyl)nicotinamide] | 43% | 17.3 µM
Cc1nc(NC(=O)c2cc(S(=O)(=O)N3CCOCC3)ccc2N2CCC(F)(F)C2)sc1C [Example 38, 2-(3,3-difluoropyrrolidin-1-yl)-N-(4,5-dimethylthiazol-2-yl)-5-(morpholinosulfonyl)benzamide] | 42.8% | 0.748 µM
Cc1csc(NC(=O)c2cc(S(=O)(=O)N(C)C)ccc2N2CCC(F)(F)C2)n1 [Example 35, 2-(3,3-difluoropyrrolidin-1-yl)-5-(N,N-dimethylsulfamoyl)-N-(4-methylthiazol-2-yl)benzamide] | 70% | 3 µM
CCc1cnc(NC(=O)c2cc(S(=O)(=O)N3CCOCC3)ccc2N2CCC(F)(F)C2)s1 [Example 36, 2-(3,3-difluoropyrrolidin-1-yl)-N-(5-ethylthiazol-2-yl)-5-(morpholinosulfonyl)benzamide] | 137% | 0.591 µM
Cc1cnc(NC(=O)c2cc(S(=O)(=O)N(C)C)ccc2N(C)C2CCCC2)s1 [Example 17, 2-(cyclopentyl(methyl)amino)-5-(N,N-dimethylsulfamoyl)-N-(5-methylthiazol-2-yl)benzamide] | 102% | 0.361 µM
Cc1cnc(NC(=O)c2cc(S(=O)(=O)N(C)C)cnc2N(C)CC2CC2)s1 | 48.3% | 3.02 µM
CCc1csc(NC(=O)c2cc(S(=O)(=O)N3CCOCC3)ccc2N(C)CC2CC2)n1 [Example 20, 2-((cyclopropylmethyl)(methyl)amino)-N-(4-ethylthiazol-2-yl)-5-(morpholinosulfonyl)benzamide] | 94.2% | 0.548 µM
Cc1nc(NC(=O)c2cc(S(=O)(=O)N3CCOCC3)c(F)cc2N(C)CC2CC2)sc1C [Example 31, 2-((cyclopropylmethyl)(methyl)amino)-N-(4,5-dimethylthiazol-2-yl)-4-fluoro-5-(morpholinosulfonyl)benzamide] | 61.2% | 0.431 µM
Cc1nc(NC(=O)c2cc(S(=O)(=O)N3CCOCC3)ccc2N(C)C2CC2)sc1C | 36.7% | 2.53 µM
Cc1nc(NC(=O)c2cc(S(=O)(=O)N3CCN(C)CC3)ccc2N(C)CC2CC2)sc1C | 76.9% | 2.19 µM
CCc1cnc(NC(=O)c2cc(S(=O)(=O)N3CCOCC3)c(F)cc2N(C)CC2CC2)s1 [Example 30, 2-((cyclopropylmethyl)(methyl)amino)-N-(5-ethylthiazol-2-yl)-4-fluoro-5-(morpholinosulfonyl)benzamide] | 96.4% | 0.371 µM
Cc1nc(NC(=O)c2cc(S(=O)(=O)CC3CC3)ccc2N(C)C2CCCC2)sc1C | 41% | 2.43 µM
CCc1cnc(NC(=O)c2cc(S(=O)(=O)N(C)C)ccc2N(C)C(C)C)s1 [Example 14, 5-(N,N-dimethylsulfamoyl)-N-(5-ethylthiazol-2-yl)-2-(isopropyl(methyl)amino)benzamide] | 128% | 0.372 µM
CCc1cnc(NC(=O)c2cc(S(=O)(=O)N(C)C)ccc2N(CC)CC)s1 [Comparator, reference compound] | 46.8% | 3.36 µM
CCc1cnc(NC(=O)c2cc(S(=O)(=O)N3CCOCC3)ccc2N(C)CC)s1 | 130% | 0.62 µM
CCc1cnc(NC(=O)c2nc(S(=O)(=O)N3CCOCC3)ccc2N(C)CC2CC2)s1 [Example 28, 3-((cyclopropylmethyl)(methyl)amino)-N-(5-ethylthiazol-2-yl)-6-(morpholinosulfonyl)picolinamide] | 33.3% | 7.92 µM

— patent publication US20240010641A1, “N-Linked Glycosylation Inhibitors and Methods of Using Same” (YALE UNIVERSITY, priority 2020, published 2024)
